In data set [1] the test system is third instar T. ni larvae. As to the kind of experiment: Leaf disk choice feeding deterrence bioassay. Conditions: for pest or weed control at 50 µg/cm2, 50 µg/cm2 / pest or weed control at 50 µg/cm2: Trichoplusia, foliar; for pest or weed control at 50 µg/cm2: read-out: % deterrence; for DC50: feeding deterrence DC50, unit not given in Table 12. Format: in vivo, Trichoplusia ni. From the text:
Cabbage plants (Brassica oleraceae var. Stonehead) used in the bioassays were routinely grown in plastic pots with a mixture of sandy loam soil and peat moss (4:1) in a greenhouse at the University of British Columbia, Vancouver, BC, Canada. Leaves were collected from cabbage plants that were 5-6 weeks old.
T. ni larvae and moths were obtained from a long established colony (>50 generations) maintained on an artificial diet, Velvetbean Caterpillar Diet No. F9796 [Bio-Sery Inc. (Frenchtown, NIL)] in the insectary of the University of British Columbia (UBC).
(§1) Initial screening for feeding deterrent effects was conducted at 50 μg/cm^2 in feeding deterrent bioassays.
Larvae were given the choice of feeding on two leaf disks, one treated with 10 μL of a solution of the test substance painted on each side and the other treated with a carrier solvent alone. The number of larvae was 25 per treatment.
Feeding deterrence data (percent) for initial screening concentration were analyzed by analysis of variance (ANOVA) after arcsin transformation using statistics software (Statistix 7. Analytical Software, Statistix 7 for Windows 95, 98, NT, 2000. Analytical Software, Tallahassee).

Data set [2] deals with T. ni moths. The data set can be described thus: Oviposition choice (deterrence) bioassay on cabbage leaves. Format: in vivo, Trichoplusia ni. The conditions noted are these: for % deterrence / Index = deterrence/mortality: Table 11; for % deterrence: BL mark not explained; for Index = deterrence/mortality: oviposition deterrence divided by mortality. As for the experimental part:
as §1
T. ni larvae were reared on normal diet from neonates (<24 h old) until pupation. Pupae were sexed and put in separate plastic containers until emergence. After eclosion, pairs of moths (one male and one female) were introduced into each cage with a control and a treated cabbage leaf. Pairs of moths (n=25) were used per treatment. Each leaf (approximately 100-110 cm^2) was sprayed with 0.5 mL of MeOH or a methanolic solution of the test chemical on each side. Eggs were counted on each cabbage leaf after 48 h.

Data set [3] concerns third instar T. ni larvae. The data set can be described thus: whole plant or invertebrate. The conditions noted are these: for mortality at 0.25 %: Trichoplusia, topical, 24 h. As for the experimental part: as §1
Mortality was determined 24 h after spraying larvae directly with test solutions. Third instar T. ni larvae were sprayed in 90 mm×15 mm Petri dishes (Falcon) lined with Fisher Scientific filter paper (90 mm diameter). Small plastic hand spraying bottles (50 mL capacity) were used. Larvae were then transferred to Petri dishes (90 mm×15 mm) with a small piece of artificial diet. Each Petri dish contained 10 larvae. Three replicates, each consisting of 10 larvae, were used per treatment.

The subject of data set [4] is T. ni moths. The data set can be described thus: Oviposition choice (deterrence) bioassay on cabbage leaves. It counts as in vivo, Trichoplusia ni. The conditions noted are these: for pest or weed control at 0.25 %: Trichoplusia, 48 h, read-out: OD (%) Mean ± SE N = 35-40.
Where [5] appears, read: Table 8, 50 μg/cm^2, read-out: F.D (%) Mean ± SE N = 25.
Where [6] appears, read: feeding deterrence (FD), Table 12, non-toxic feeding deterrents.
Setting [7] is: oviposition deterrence at 0.25%.
[8] abbreviates: read-out: Mortality (%) N = 3 × 10, Table 8, at 0.25%.
Setting [9] is: contact toxicity to larvae, negative or zero values replaced by 0.1 for the index (footnote b).
Where [10] appears, read: Table 7, second lots and purified isomers, 50 μg/cm^2, read-out: F.D (%) Mean ± SE N = 25.
The mark [11] stands for this setting: Table 7, second lots and purified isomers, at 0.25%.
The mark [12] stands for this setting: read-out: Mortality (%) N = 3 × 10, Table 10, at 0.25%.

16 compounds from patent US9125406B2, “Methods and compositions for control of cabbage looper, trichoplusia ni” (Simon Fraser University, priority 2008, dated 2015) can be followed below.

Like-named read-outs stand apart in the source and are kept apart here.

As usually defined, the mortality is the percentage killed. `CCCCOc1ccccc1OCCC` [3a{3, 4}, 1-propoxy-2-butoxybenzene]: in data set [1] (setting [5]), the pest or weed control at 50 µg/cm2, 50 µg/cm2 was determined as 98 ± 2%. For the same compound, in data set [1] (setting [6]), the pest or weed control at 50 µg/cm2 is 98%. Besides, the DC50 in data set [1] is on record as 21 μg/cm^2. Moreover, the “% deterrence” value in data set [2] (setting [7]) was 37 BL %. Also, the “Index = deterrence/mortality” value in data set [2] turned out to be 1.9. In addition, the mortality at 0.25 % in data set [3] (setting [8]) was 19%. Moreover, the “% mortality” value in data set [3] (setting [9]) is 19%. Also, the pest or weed control at 0.25 % in data set [4] (Table 8, at 0.25%) stood at 37 ± 14%.
As to `C=CCOc1ccccc1OCCCC` [3a{4, 6}, 1-allyloxy-2-butoxybenzene], the pest or weed control at 50 µg/cm2, 50 µg/cm2 in data set [1] (setting [5]) came out at 92 ± 6%. In data set [1] (setting [6]), the pest or weed control at 50 µg/cm2 was 92%. This compound gave a DC50 in data set [1] of 17 μg/cm^2. Moreover, in data set [2] (setting [7]), the “% deterrence” value came to 35 BL %. Besides, the “Index = deterrence/mortality” value in data set [2] is given as 1.8. Moreover, the mortality at 0.25 % in data set [3] (setting [8]) is 19%. For the same compound, the “% mortality” value in data set [3] (setting [9]) was determined as 19%. The pest or weed control at 0.25 % in data set [4] (Table 8, at 0.25%) was 35 ± 17%.
For the compound `C=CCOc1ccccc1OCCC(C)C` [3a{5, 6}, 1-allyloxy-2-isopentoxybenzene], the pest or weed control at 0.25 % in data set [4] (Table 8, at 0.25%) was determined as 26 ± 13.5%.
Turning to `COc1cccc(OCCC(C)C)c1` [3b{1, 5}, 1-methoxy-3-(3-methyl-butyloxy)benzene], the pest or weed control at 50 µg/cm2, 50 µg/cm2 in data set [1] (setting [5]) is 89 ± 7%. In addition, the mortality at 0.25 % in data set [3] (setting [8]) turned out to be 30%. Besides, the pest or weed control at 0.25 % in data set [4] (Table 8, at 0.25%) is 25 to 30%.
Take `C=CCOc1cccc(OC)c1` [3b{1, 6}, 1-allyloxy-3-methoxybenzene]: the pest or weed control at 50 µg/cm2, 50 µg/cm2 in data set [1] (setting [5]) is 66 ± 12%. Moreover, in data set [3] (setting [8]), the mortality at 0.25 % amounted to 33%. The pest or weed control at 0.25 % in data set [4] (Table 8, at 0.25%) amounted to 9 ± 14%.
For the compound `CCCOc1cccc(OCCC(C)C)c1` [3b{3, 5}, 3-propoxy-1-isopentoxybenzene], the pest or weed control at 50 µg/cm2, 50 µg/cm2 in data set [1] (setting [5]) is 97 ± 3%. Moreover, the pest or weed control at 50 µg/cm2 in data set [1] (setting [6]) worked out at 97%. Further, the DC50 in data set [1] was determined as 17 μg/cm^2. In data set [3] (setting [8]), the mortality at 0.25 % worked out at 10%. For the same compound, the “% mortality” value in data set [3] (setting [9]) was 10%. Also, in data set [4] (Table 8, at 0.25%), the pest or weed control at 0.25 % stood at 9 ± 17%.
As for `C=CCOc1cccc(OCCC(C)C)c1` [3b{5, 6}, 1-allyloxy-3-isopentoxybenzene], the pest or weed control at 0.25 % in data set [4] (Table 8, at 0.25%) came to 10 ± 13%.
Consider `C=CCOc1cccc(OCC=C)c1` [3b{6, 6}, 1,3-Diallyloxy benzene], for which, in data set [1] (setting [5]), the pest or weed control at 50 µg/cm2, 50 µg/cm2 is 97 ± 3%. Further, the pest or weed control at 50 µg/cm2 in data set [1] (setting [6]) worked out at 97%. In data set [1], this compound displayed a DC50 of 20 μg/cm^2. Also, the mortality at 0.25 % in data set [3] (setting [8]) amounted to 13%. The “% mortality” value in data set [3] (setting [9]) stood at 13%. For the same compound, the pest or weed control at 0.25 % in data set [4] (Table 8, at 0.25%) fell in the range of 25 to 30%.
On to `CCCOc1ccc(OCC)cc1` [3c{2, 3}, 4-ethoxy-1-propoxybenzene], for which, in data set [1] (setting [5]), the pest or weed control at 50 µg/cm2, 50 µg/cm2 was 100%. For the same compound, the pest or weed control at 50 µg/cm2 in data set [1] (setting [6]) worked out at 100%. For the same compound, the DC50 in data set [1] came to 33 μg/cm^2. Also, the mortality at 0.25 % in data set [3] (setting [8]) came to 17%. Also, in data set [3] (setting [9]), the “% mortality” value is 17%. The pest or weed control at 0.25 % in data set [4] (Table 8, at 0.25%) came to 10 ± 13%.
As for `C=CCOc1ccc(OCC)cc1` [3c{2, 6}, 1-allyloxy-4-ethoxybenzene], the pest or weed control at 50 µg/cm2, 50 µg/cm2 in data set [1] (setting [5]) came to 73 ± 12%. In data set [3] (setting [8]), the mortality at 0.25 % turned out to be 6.7%. In data set [4] (Table 8, at 0.25%), the pest or weed control at 0.25 % is under 30%.
In the case of `C=CCOc1ccc(OCCC(C)C)cc1` [3c{5, 6}, 1-allyloxy-4-isopentoxybenzene], in data set [1] (Table 3, 1,4-dialkoxybenzenes, feeding deterrence at 50 μg/cm^2, read-out: FD (%), mean ± SE (n = 25)), the pest or weed control at 50 µg/cm2, 50 µg/cm2 stood at 75.1 ± 12.7%. The pest or weed control at 0.25 % in data set [2] (Trichoplusia, 48 h, Table 3, oviposition deterrence at 0.25%, 48 h, read-out: OD (%), mean ± SE (n = 25-33)) was 18.8 ± 14.3%; in data set [4] (Table 8, at 0.25%), -25 ± 12%. Further, the mortality at 0.25 % in data set [3] (read-out: mortality (%) (n = 3 × 10), Table 3, at 0.25%) was determined as 7%.
For `C=CCc1c(OC)cccc1OCCC` [5b{3, 1} y (100% y), 1-methoxy-2-allyl-3-propoxy-benzene], the pest or weed control at 50 µg/cm2, 50 µg/cm2 in data set [1] (setting [10]) is 100%. Further, the pest or weed control at 0.25 % in data set [4] (setting [11]) was 17 ± 14%.
With `C=CCc1c(OCC)cccc1OCCC` [5b{3, 2} y (100% y), 1-ethoxy-2-allyl-3-propoxy-benzene], the pest or weed control at 50 µg/cm2, 50 µg/cm2 in data set [1] (setting [10]) is 74 ± 14%. Moreover, the mortality at 0.25 % in data set [3] (read-out: Mortality (%) N = 3 × 10, Table 7, second lots and purified isomers, at 0.25%) was found to be 0%. Further, in data set [4] (setting [11]), the pest or weed control at 0.25 % is -6.4 ± 11.4%.
As for `C=CCc1cc(OC)ccc1OC` [5c{1, 1}, 1,4-dimethoxy-2-allyl-benzene], in data set [1], the pest or weed control at 50 µg/cm2 was 80% and the DC50 was determined as 20 μg/cm^2. Moreover, the pest or weed control at 50 µg/cm2, 50 µg/cm2 in data set [1] (read-out: F.D (%) Mean ± SE N = 25) was 80 ± 11%. Besides, in data set [3] (setting [12]), the mortality at 0.25 % was found to be 38.9%. Also, in data set [3] (in vivo), the “% mortality” value stood at 39%. For the same compound, the pest or weed control at 0.25 % in data set [4] was determined as 14 ± 12%.
As to `C=CCc1cc(OCCC)ccc1OC` [5c{3, 1}, 1-methoxy-2-allyl-4-propoxy-benzene], in data set [1] (Table 10, 50 μg/cm^2, read-out: F.D (%) Mean ± SE N = 25), the pest or weed control at 50 µg/cm2, 50 µg/cm2 is 92 ± 6%. For the same compound, the pest or weed control at 50 µg/cm2 in data set [1] (setting [6]) is 92%. For the same compound, the DC50 in data set [1] stood at 9 μg/cm^2. In addition, in data set [3] (setting [12]), the mortality at 0.25 % stood at 6.4%. Besides, in data set [3] (setting [9]), the “% mortality” value is given as 6%. Also, the pest or weed control at 0.25 % in data set [4] (Table 10, at 0.25%) was 7 ± 15%.
For the compound `CCN(CC)C(=O)c1cccc(C)c1` [DEET, reference compound], the “F.D (%) Mean ± SE N = 25” value in data set [1] (Table 8, 50 μg/cm^2) is on record as 60 ± 15 ^AB %. Moreover, the “Mortality (%) N = 3 × 10” value in data set [3] (Table 8, at 0.25%) is given as 7%. For the same compound, the “OD (%) Mean ± SE N = 35-40” value in data set [4] (Table 8, at 0.25%) is 23 ± 14%.
